In ChEMBL document CHEMBL1122707, “Pyrroloisoquinoline antidepressants. Potent, enantioselective inhibition of tetrabenazine-induced ptosis and neuronal uptake of norepinephrine, dopamine, and serotonin” (J Med Chem, 1984) one finds ED50 and Ki data, which are given here for 23 compounds.

A value given as a limit tells only on which side of the number the result lay.

One may read the ED50 as the midpoint of the dose-response relation. As usually defined, the Ki is the dissociation constant of the complex between target and ligand, obtained from inhibition or displacement.

Assay [1] deals with Mus musculus. Description: Inhibition of tetrabenazine (TBZ)-induced depression of motor activity (MA) in mice (administered ip). It is filed as functional.
For assay [2], the target named is Norepinephrine transporter (Rattus norvegicus, UniProt Q9WTR4). Nature of the assay: Inhibition of norepinephrine (NE) into rat brain synaptosomes. The class given is functional, subcellular.
Assay [3] concerns the target Sodium-dependent dopamine transporter (Rattus norvegicus, UniProt P23977). Nature of the assay: Inhibition of dopamine (DA) uptake into rat brain synaptosomes. It is filed as functional, subcellular.
Assay [4] deals with Mus musculus. Description: Inhibition of tetrabenazine (TBZ)-induced ptosis in mice (administered ip). It is filed as functional.
Assay [5] concerns the target Sodium-dependent serotonin transporter (Rattus norvegicus, UniProt P31652). Nature of the assay: Inhibition of serotonin (5-HT) uptake into rat brain synaptosomes. It is filed as subcellular.
In assay [6] the test system is Mus musculus. Description: Compound was evaluated for the inhibition of tetrabenazine (TBZ)-induced ptosis in mice (administered sc). The class given is functional.
For assay [7], the system named is Mus musculus. Description: Compound was evaluated for the inhibition of tetrabenazine (TBZ)-induced depression of motor activity (MA) in mice (administered sc). It is filed as functional.
Setting [8] is: Mus musculus, ip, read-out: ED50.

Sequence of Sodium-dependent dopamine transporter (P23977 whole entry): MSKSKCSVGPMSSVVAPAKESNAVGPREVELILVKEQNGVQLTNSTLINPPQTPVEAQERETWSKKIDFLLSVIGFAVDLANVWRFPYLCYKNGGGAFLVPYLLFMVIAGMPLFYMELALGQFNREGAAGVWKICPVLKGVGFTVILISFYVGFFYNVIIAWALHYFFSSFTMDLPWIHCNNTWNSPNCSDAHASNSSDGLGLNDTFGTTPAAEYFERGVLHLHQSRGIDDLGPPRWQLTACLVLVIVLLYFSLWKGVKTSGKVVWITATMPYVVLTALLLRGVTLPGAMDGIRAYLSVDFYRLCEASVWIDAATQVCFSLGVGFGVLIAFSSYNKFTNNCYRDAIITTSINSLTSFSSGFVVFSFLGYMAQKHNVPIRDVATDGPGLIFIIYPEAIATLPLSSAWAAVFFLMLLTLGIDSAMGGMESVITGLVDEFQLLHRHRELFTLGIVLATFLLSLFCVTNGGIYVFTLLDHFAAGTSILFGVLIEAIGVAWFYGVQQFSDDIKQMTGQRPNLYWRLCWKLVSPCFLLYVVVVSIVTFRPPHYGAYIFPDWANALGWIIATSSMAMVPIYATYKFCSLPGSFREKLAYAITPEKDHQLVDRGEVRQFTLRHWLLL
Sequence of Norepinephrine transporter (Q9WTR4 whole entry): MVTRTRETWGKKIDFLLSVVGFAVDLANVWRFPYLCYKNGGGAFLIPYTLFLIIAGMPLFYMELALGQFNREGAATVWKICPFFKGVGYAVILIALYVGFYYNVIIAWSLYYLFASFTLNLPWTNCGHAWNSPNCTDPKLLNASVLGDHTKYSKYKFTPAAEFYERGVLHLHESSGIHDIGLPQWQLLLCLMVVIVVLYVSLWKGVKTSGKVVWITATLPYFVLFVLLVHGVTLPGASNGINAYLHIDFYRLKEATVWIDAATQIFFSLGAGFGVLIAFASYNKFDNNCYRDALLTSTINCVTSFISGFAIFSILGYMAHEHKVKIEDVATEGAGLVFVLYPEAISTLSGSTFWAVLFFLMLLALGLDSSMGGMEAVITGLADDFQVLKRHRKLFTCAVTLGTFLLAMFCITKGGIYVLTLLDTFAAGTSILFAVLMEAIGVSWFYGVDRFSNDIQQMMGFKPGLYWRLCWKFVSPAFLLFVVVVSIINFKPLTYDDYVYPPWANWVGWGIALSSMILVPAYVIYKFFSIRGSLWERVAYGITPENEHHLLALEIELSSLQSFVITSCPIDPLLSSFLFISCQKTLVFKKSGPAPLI
Sequence of Sodium-dependent serotonin transporter (P31652 whole entry): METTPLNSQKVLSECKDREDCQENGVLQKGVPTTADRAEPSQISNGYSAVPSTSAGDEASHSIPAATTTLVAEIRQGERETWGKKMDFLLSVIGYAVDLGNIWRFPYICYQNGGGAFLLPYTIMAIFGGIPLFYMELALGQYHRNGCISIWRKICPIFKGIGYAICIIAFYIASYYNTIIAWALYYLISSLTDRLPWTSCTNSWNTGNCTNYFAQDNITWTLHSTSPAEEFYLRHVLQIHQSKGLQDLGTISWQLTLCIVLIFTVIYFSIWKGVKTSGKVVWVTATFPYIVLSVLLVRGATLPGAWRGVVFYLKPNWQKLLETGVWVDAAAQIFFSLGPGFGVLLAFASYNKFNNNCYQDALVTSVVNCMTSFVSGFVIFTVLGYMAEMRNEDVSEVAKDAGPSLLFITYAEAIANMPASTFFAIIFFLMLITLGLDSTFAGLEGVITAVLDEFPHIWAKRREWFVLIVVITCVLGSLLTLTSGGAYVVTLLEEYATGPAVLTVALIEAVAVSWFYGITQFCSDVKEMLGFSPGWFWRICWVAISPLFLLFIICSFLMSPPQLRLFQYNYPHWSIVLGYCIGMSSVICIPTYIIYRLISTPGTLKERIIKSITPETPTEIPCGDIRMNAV

With `c1ccc(C2CN3CCCCC3c3ccccc32)cc1` (stereo not given), the ED50 with Mus musculus [1] and with Mus musculus [4] (setting [8]) was greater than 30 mg/kg each time. Besides, the Ki in assay [2] is 20 nM; in assay [3], greater than 500 nM.

Consider `Br.COc1ccc(C2CN3CCC[C@H]3c3ccccc32)cc1` (stereo not given in full), for which the ED50 was 0.27 mg/kg with Mus musculus [1] and 0.03 mg/kg in the assay on Mus musculus [4] (setting [8]). The Ki in assay [2] came out at 0.79 nM; in assay [3], 5.2 nM.

In assay [2], `CN1Cc2c(N)cccc2C(c2ccccc2)C1` (stereo not given) [NOMIFENSINE] returned a Ki of 3.8 nM.

In the case of `CSc1ccc([C@@H]2CN3CCC[C@H]3c3ccccc32)cc1`, the ED50 is greater than 30 mg/kg in the assay on Mus musculus [1] and 0.4 mg/kg with Mus musculus [4] (setting [8]). For the same compound, in assay [3], the Ki was 36.8 nM.

As for `Br.Clc1ccc(C2CN3CCC[C@H]3c3ccccc32)cc1` (stereo not given in full), the 50% effective dose (ED50) was found to be 0.55 mg/kg in the assay with Mus musculus [1] and 0.34 mg/kg in the assay on Mus musculus [4] (setting [8]).

On to `Br.Oc1ccc(C2CN3CCC[C@H]3c3ccccc32)cc1O` (stereo not given in full), for which the ED50 with Mus musculus [1] was 0.19 mg/kg; with Mus musculus [4] (setting [8]), 0.11 mg/kg. For the same compound, the Ki in assay [2] came out at 0.81 nM; in assay [3], 10.1 nM.

For `CN(C)CCCN1c2ccccc2CCc2ccccc21.Cl` [IMIPRAMINE HYDROCHLORIDE], the ED50 with Mus musculus [1] stood at 0.58 mg/kg; in the assay with Mus musculus [4] (setting [8]) it was 0.98 mg/kg.

`Br.Oc1ccc(C2CN3CCC[C@H]3c3ccccc32)cc1` (stereo not given in full): the ED50 in the assay with Mus musculus [1] was determined as 0.4 mg/kg; with Mus musculus [4] (setting [8]) it was 0.09 mg/kg. For the same compound, the Ki in assay [2] was determined as 0.74 nM; in assay [3], 5.1 nM.

Take `c1ccc([C@H]2CN3CCC[C@H]3c3ccccc32)cc1`: the ED50 with Mus musculus [1] came out at 0.34 mg/kg; in the assay with Mus musculus [4] (setting [8]), 0.07 mg/kg.

Turning to `COc1ccc2c(c1)CN(C)CC2c1ccc(Cl)c(Cl)c1` (stereo not given) [DICLOFENSINE], the Ki in assay [2] came out at 4.4 nM; in assay [3], 14.6 nM.

In the case of `Clc1ccc(C2CN3CCC[C@H]3c3ccccc32)cc1Cl` (stereo not given in full), the ED50 in the assay with Mus musculus [1] was determined as 0.39 mg/kg; in the assay on Mus musculus [4] (setting [8]), 0.14 mg/kg. Further, the values for the Ki in assay [2] and in assay [3] were 0.68 nM and 0.99 nM, respectively.

In the case of `Br.O=[N+]([O-])c1ccc(C2CN3CCC[C@H]3c3ccccc32)cc1` (stereo not given in full), the ED50 amounted to 0.34 mg/kg with Mus musculus [1] and 0.14 mg/kg in the assay with Mus musculus [4] (setting [8]). Further, the Ki in assay [2] was determined as 3.4 nM; in assay [3], 94.2 nM.

Turning to `Cl.c1ccc(C2CN3CCC[C@H]3c3ccccc32)cc1` (single isomer, unassigned; (+)), the ED50 with Mus musculus [1] was determined as 0.59 mg/kg; in the assay on Mus musculus [4] (setting [8]), 0.05 mg/kg. In assay [3], the Ki turned out to be 4.4 nM.

Turning to `Cl.FC(F)(F)c1cccc([C@@H]2CN3CCC[C@H]3c3ccccc32)c1`, the ED50 in the assay on Mus musculus [1] and in the assay on Mus musculus [4] (setting [8]) was greater than 60 mg/kg throughout. The Ki is greater than 100 nM in assay [2] and greater than 1000 nM in assay [3].

Regarding `Br.Nc1ccc([C@@H]2CN3CCC[C@H]3c3ccccc32)cc1`, the ED50 was 1.4 mg/kg in the assay with Mus musculus [1] and 0.4 mg/kg in the assay on Mus musculus [4] (setting [8]). In addition, the Ki is 10 nM in assay [2] and 30 nM in assay [3].

`Cl.FC(F)(F)c1cccc([C@H]2CN3CCC[C@H]3c3ccccc32)c1`: the ED50 in the assay on Mus musculus [1] came out at 1.2 mg/kg; in the assay with Mus musculus [4] (setting [8]), 0.43 mg/kg. Besides, the values for the Ki in assay [2] and in assay [3] were 0.95 nM and 54.3 nM, respectively.

Turning to `Br.COc1ccc(C2CN3CCC[C@H]3c3ccccc32)cc1OC` (stereo not given in full), the ED50 in the assay on Mus musculus [1] came out at 0.45 mg/kg; in the assay on Mus musculus [4] (setting [8]), 0.11 mg/kg. For the same compound, the Ki in assay [2] stood at 3.4 nM; in assay [3], 71.9 nM.

Regarding `CN1CCN2c3ccccc3Cc3ccccc3C2C1` (stereo not given) [MIANSERIN], the values for the ED50 with Mus musculus [1] and in the assay on Mus musculus [4] (setting [8]) were greater than 30 mg/kg and 9.7 mg/kg, respectively. Further, the Ki was 26 nM in assay [2] and greater than 10000 nM in assay [3].

As for `Cl.c1ccc([C@H]2CN3CCC[C@H]3c3ccccc32)cc1` (stereo in doubt; (-)-5b), the ED50 in the assay on Mus musculus [1] is greater than 30 mg/kg; in the assay on Mus musculus [4], 8.3 mg/kg. Moreover, in assay [3], the Ki worked out at 1340 nM.

As for `Br.c1ccc(C2CN3CCCCCC3c3ccccc32)cc1` (stereo not given), the Ki was greater than 5000 nM in assay [5], 100 nM in assay [2] and greater than 100 nM in assay [3]. Further, the ED50 in the assay with Mus musculus [1] is 30 mg/kg; in the assay on Mus musculus [4] (setting [8]), greater than 30 mg/kg.

Compound `Cl.c1ccc([C@H]2CN3CCC[C@H]3c3ccccc32)cc1` (stereo in doubt; 5a) showed a Ki in assay [3] of 160 nM. This compound also had an ED50 in the assay with Mus musculus [4] greater than 30 mg/kg.

As to `Br.Nc1ccc([C@H]2CN3CCC[C@H]3c3ccccc32)cc1`, the ED50 in the assay with Mus musculus [1] is greater than 1 mg/kg; in the assay with Mus musculus [4] (setting [8]) it was 0.02 mg/kg. The Ki in assay [2] was 0.2 nM; in assay [3], 0.86 nM.

`CNCCCN1c2ccccc2CCc2ccccc21.Cl` [DESIPRAMINE HYDROCHLORIDE]: the ED50 in the assay with Mus musculus [6] came out at 0.05 mg/kg; with Mus musculus [7], 0.07 mg/kg.
